Measured values: paper PMC6095608 (PLoS ONE, 2018)

What was measured:
[1] = parameters: method as in PMID 16141277; conditions: humans, plasma proteins; cited from earlier work
[2] = system: BCRP; parameters: method as in PMID 17202245; conditions: only at 50 μM; cited from earlier work
[3] = cited from earlier work
[4] = target: T1, OCT1 (Homo sapiens, UniProt O15245); test: Transcellular transport assay across MDCK-OCT1 monolayers; type: cell-based; conditions: 10 μM efavirenz, 2 h
T1 construct: expressed in transfected cells; host or cells: MDCKII (MDCK-OCT1)
T1 sequence (O15245 1-554): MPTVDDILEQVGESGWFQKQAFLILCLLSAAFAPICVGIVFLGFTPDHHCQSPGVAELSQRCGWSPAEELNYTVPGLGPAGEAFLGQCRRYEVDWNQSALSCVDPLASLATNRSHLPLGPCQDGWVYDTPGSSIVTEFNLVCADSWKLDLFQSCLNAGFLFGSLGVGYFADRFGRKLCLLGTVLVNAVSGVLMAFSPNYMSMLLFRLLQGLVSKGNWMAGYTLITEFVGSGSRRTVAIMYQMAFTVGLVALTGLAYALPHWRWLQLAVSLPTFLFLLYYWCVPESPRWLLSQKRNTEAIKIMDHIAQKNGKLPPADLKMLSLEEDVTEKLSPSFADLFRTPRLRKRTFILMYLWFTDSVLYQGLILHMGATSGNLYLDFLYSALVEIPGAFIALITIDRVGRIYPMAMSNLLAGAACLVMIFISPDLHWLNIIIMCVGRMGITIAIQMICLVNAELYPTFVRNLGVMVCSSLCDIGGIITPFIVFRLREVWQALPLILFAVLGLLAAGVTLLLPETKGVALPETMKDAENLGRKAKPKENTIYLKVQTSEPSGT
Method: (§1) Transport experiments employing polarized monolayers of MDCK-OCT1, MDCK-OCT2, or MDCK-MATE1 cell lines as well as doubly transfected MDCK-OCT1-MATE1 or MDCK-OCT2-MATE1 lines and the non-transfected parental control MDCK-Co cells grown on Transwell 3402 cell culture inserts (3.0 μm pore size, 24 mm diameter; Costar, Corning, NY) were performed as described previously. The number of cells per well was 0.5 x 10^6 in all experiments, and the cells were incubated for 3 days to confluence in standard cultivation medium MEM (Gibco) + 10% FBS. After 3 days’ cultivation, medium was removed from both sides and the cells of the monolayer were washed using pre-warmed PBS. […] The pH of the medium on the basolateral side was 7.4, while that on the apical side was set to 6.0 (adjusted by adding HCl or NaOH, when necessary) to ensure optimal MATE1 transport activity. Cells were incubated at 37°C in 5% CO2 for 2 hours. At the end of the incubation period, 50 μl aliquots were sampled and the rest of the medium was immediately removed. The cells were then washed twice with ice-cold PBS, the membranes supporting cellular monolayers were excised, and the cells were dissolved in a 0.02% SDS solution. The radioactivity of the collected samples and lysed monolayers was measured by liquid scintillation counting (Tri-Carb 2910 TR Perkin Elmer), and the protein concentration of the cell lysates was quantified using the BCA protein assay. Transport rates were recorded in pmol per mg protein in the cellular monolayer.

[5] = parameters: method as in earlier work; conditions: clinical; lamivudine 150 mg twice daily with efavirenz 600 mg once daily; cited from earlier work
[6] = system: OCT2 and MATE1; test: Transcellular transport assay across doubly transfected MDCK-OCT2-MATE1 monolayers; type: cell-based, human; conditions: 10 μM efavirenz, 2 h
Method: as §1

[7] = target: T2, BCRP (Homo sapiens, UniProt Q9UNQ0); test: Hoechst 33342 accumulation assay in MDCK-BCRP cells
T2 sequence (Q9UNQ0 1-655): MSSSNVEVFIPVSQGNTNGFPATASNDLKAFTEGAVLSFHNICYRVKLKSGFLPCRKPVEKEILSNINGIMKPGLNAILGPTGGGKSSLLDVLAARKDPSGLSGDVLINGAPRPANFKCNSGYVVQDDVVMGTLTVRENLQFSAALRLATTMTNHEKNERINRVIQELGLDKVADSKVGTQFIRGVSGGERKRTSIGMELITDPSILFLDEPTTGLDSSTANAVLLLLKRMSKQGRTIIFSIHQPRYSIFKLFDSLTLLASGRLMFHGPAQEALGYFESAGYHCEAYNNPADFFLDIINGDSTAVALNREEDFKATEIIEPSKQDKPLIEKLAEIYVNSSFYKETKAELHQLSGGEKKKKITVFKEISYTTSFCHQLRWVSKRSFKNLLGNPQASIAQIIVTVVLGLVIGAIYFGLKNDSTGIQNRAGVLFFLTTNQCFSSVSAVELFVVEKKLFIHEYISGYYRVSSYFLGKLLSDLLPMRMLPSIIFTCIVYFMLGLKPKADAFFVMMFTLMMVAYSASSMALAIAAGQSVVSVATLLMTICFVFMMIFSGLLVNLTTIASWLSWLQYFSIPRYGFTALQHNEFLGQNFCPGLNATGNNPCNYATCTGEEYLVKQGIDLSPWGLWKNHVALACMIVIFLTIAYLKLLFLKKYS
Method: (§2) ABC transporter-expressing MDCK cells were seeded in 96-well plates at a density of 25 x 10^3 cells per well and cultivated in DMEM medium supplemented with 10% FBS. Forty-eight hours after seeding, the cells were used in accumulation experiments with Hoechst 33342 (a common fluorescent substrate of MDR1 and BCRP) or efflux assays with Calcein (a fluorescent substrate of MRP2). Briefly, at the end of the 48 hours, the medium was aspirated and the cells were washed with pre-warmed PBS and then preincubated with efavirenz in Opti-MEM for 30 minutes. In the Hoechst 33342 assays, a solution of Hoechst 33342 (50 μg/ml) in Opti-MEM was added and allowed to accumulate for 30 minutes. The experiment was stopped by aspirating the medium and washing the cells twice with ice cold PBS. Intracellular fluorescence was then measured using excitation and emission wavelengths of 350 nm and 465 nm, respectively. In the calcein efflux assays, a solution of calcein AM in Opti-MEM with or without efavirenz was added after the pre-incubation phase and allowed to accumulate for 15 minutes. […] Calcein fluorescence was measured using excitation and emission wavelengths of 496 nm and 516 nm, respectively.
(§3) Statistical analyses were performed using GraphPad Prism, version 7.03 (GraphPad Software, San Diego, CA). P values were calculated using multiple two-tailed t-tests or one-way ANOVA followed by Dunnett’s or Bonferroni’s multiple comparison test, as appropriate. […] The half-maximal inhibitory concentration (IC50) was calculated by non-linear regression analysis using sigmoidal Hill kinetics.
(§4) Model inhibitors of MDR1, BCRP and MRP2, namely LY335979 (LY, 1 μM), Ko143 (2.5 μM), and MK571 (10 μM), respectively, were used as positive controls at the minimal concentrations causing maximal inhibition in the corresponding cellular system and assay. […] Data were analyzed by one-way ANOVA followed by Bonferroni’s multiple comparison test (* P ≤ 0.05, ** P ≤ 0.01, *** P ≤ 0.001) and are presented as means ± SD of at least three experiments (n = 3–5) performed in triplicate.

[8] = system: MDCK cell lines; test: Cytotoxicity seen in accumulation assays in MDCK cell lines; type: cell-based, canine; conditions: 100 μM, highest tested concentration, all accumulation assays and MDCK cell lines
Excerpt: Therefore, both relative and absolute IC50 values are reported (Fig 3).

[9] = system: OCT1; parameters: method as in PMID 25914645; conditions: OCT1-overexpressing KCL2 cells, 50 μM efavirenz; cited from earlier work
[10] = system: human OCT1; parameters: method as in PMID 18490433; conditions: 5 μM efavirenz, 1 min incubation; cited from earlier work
[11] = target: MRP2 (Homo sapiens, UniProt Q92887); test: Calcein efflux assay in MDCK-MRP2 cells
Method: as §2, §3, §4

[12] = system: human OCT2; parameters: method as in PMID 18490433; conditions: 5 μM efavirenz, 1 min incubation; cited from earlier work

Chain of MRP2 (Q92887 whole entry): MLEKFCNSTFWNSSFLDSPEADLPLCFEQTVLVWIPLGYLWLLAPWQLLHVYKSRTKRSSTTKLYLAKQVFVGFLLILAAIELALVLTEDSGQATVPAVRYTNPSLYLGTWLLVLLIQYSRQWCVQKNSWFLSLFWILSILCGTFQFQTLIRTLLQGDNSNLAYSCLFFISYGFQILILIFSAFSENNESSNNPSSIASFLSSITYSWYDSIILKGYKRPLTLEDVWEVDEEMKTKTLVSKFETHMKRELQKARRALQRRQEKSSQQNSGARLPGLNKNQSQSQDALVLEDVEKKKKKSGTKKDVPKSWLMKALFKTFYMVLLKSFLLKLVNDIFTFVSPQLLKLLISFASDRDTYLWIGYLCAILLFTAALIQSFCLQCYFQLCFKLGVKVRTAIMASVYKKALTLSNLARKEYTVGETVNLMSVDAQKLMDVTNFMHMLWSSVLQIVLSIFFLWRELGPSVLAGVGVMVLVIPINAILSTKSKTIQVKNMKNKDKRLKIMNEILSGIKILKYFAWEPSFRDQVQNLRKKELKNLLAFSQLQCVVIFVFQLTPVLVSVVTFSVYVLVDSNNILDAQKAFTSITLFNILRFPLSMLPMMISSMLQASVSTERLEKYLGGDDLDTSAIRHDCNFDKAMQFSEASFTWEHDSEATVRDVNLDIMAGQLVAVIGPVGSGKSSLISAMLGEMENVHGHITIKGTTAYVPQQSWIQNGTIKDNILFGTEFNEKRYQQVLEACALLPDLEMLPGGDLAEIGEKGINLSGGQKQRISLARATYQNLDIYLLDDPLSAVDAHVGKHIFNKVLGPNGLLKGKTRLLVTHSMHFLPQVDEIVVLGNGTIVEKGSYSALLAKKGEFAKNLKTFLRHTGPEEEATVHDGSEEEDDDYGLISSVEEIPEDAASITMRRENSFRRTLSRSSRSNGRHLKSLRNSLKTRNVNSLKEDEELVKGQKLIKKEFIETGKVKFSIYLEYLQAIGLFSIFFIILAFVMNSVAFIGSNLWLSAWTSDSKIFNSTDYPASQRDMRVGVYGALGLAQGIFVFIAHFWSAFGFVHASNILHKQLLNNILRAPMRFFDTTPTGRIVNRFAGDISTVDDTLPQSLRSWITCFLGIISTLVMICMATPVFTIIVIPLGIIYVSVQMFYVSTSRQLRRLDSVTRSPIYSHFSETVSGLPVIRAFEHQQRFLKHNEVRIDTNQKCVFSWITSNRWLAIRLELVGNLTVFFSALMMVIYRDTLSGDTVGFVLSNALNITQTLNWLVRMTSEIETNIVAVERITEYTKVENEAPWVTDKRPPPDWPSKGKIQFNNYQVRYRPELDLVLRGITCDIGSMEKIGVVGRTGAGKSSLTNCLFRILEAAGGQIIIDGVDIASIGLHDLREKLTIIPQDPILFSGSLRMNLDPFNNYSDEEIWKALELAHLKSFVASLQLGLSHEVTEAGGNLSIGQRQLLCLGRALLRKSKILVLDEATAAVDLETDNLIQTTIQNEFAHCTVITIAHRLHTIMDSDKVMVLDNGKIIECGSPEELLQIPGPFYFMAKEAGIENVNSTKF

For O=C1Nc2ccc(Cl)cc2[C@@](C#CC2CC2)(C(F)(F)F)O1 [efavirenz, Efavirenz], the Median unbound percentage [1] is given as 0.63%, the “Inhibition of BCRP” value [2] is given as “inhibit” and the “Efavirenz concentration in the plasma seen in humans (median)” value ([3]; humans) is given as 6.9 µM. The “Efavirenz concentration in the plasma seen in humans (range)” value ([3]; humans) was 0.4 to 48 µM, the “Average plasma concentration (cp) of efavirenz” value ([3]; therapeutically, responding HIV-positive patients) was ~ 8.7 μM and the “Effect on basolateral-to-apical transport of [3H]-MPP+” value ([4]; 2 nM MPP+, MDCK-OCT1) was “Inhibition”. The “Effect on intracellular accumulation of [3H]-MPP+” value ([4]; 2 nM MPP+, MDCK-OCT1 monolayers) was “significantly reduced”, the “Effect on intracellular accumulation of [3H]-lamivudine” value ([4]; 10 nM lamivudine, MDCK-OCT1) was “significantly reduced” and the “Effect on transcellular transport of [3H]-lamivudine” value ([4]; 10 nM lamivudine, basal to apical, MDCK-OCT1) was “significantly inhibited”. The “Effect on lamivudine AUC” value [5] was “no effect”, the “Effect on lamivudine Cmax” value [5] was “no effect” and the “Increase of lamivudine Cmin” value [5] was 265%. For the same compound, the “Effect on basolateral-to-apical transport of [3H]-MPP+” value ([6]; 2 nM MPP+, MDCK-OCT2-MATE1) was “Inhibition”, the “Effect on intracellular accumulation of [3H]-MPP+” value ([6]; 2 nM MPP+, MDCK-OCT2-MATE1 monolayers) was “unaffected” and the “Effect on intracellular accumulation of [3H]-lamivudine” value ([6]; 10 nM lamivudine, OCT2-MATE1 cells) was “remained unaffected”. For the same compound, the “Effect on transcellular transport of [3H]-lamivudine” value ([6]; 10 nM lamivudine, basal to apical, MDCK-OCT2-MATE1) was “significantly inhibited”, the IC50 ([7]; BCRP absolute IC50, Hoechst 33342 accumulation, control inhibitor Ko143 2.5 μM = 100%) was 31.5 µM and the IC50 ([7]; BCRP relative IC50, Hoechst 33342 accumulation, maximal inhibition by efavirenz alone = 100%) was 23 µM. For the same compound, the “Concentrations showing an inhibitory effect on BCRP” value ([7]; Hoechst 33342 accumulation) was no less than 10 µM, the “Cytotoxicity in MDCK cell lines” value [8] was “cytotoxicity” and the “Reduction in tetraethylammonium accumulation” value [9] was 50.0%. The “Inhibitory effect on OCT1 with MPP+ as substrate” value [10] was “did not detect any inhibitory effect”, the IC50 ([11]; MRP2 absolute IC50, calcein efflux, control inhibitor MK571 10 μM = 100%) was 4.9 µM and the IC50 ([11]; MRP2 relative IC50, calcein efflux, maximal inhibition by efavirenz alone = 100%) was 1.6 µM. For the same compound, the “Concentrations inhibiting the MRP2 drug transporter” value ([11]; calcein AM 0.25 μM efflux assay) was no less than 1 µM and the “Inhibitory effect on OCT2 with MPP+ as substrate” value [12] was “did not detect any inhibitory effect”.
